Source: ChEMBL document CHEMBL5058564, “EUbOPEN Chemogenomics Library 2 (Incucyte)” (2022)
Where a SMILES comes first, the peptide text is derived from it. Bridges are numbered along the chain shown (N, C = ends). [ ]: non-standard residue; d: D form. Orn = NCCC[C@H](N)C(=O)O; Mpa = O=C(O)CCS

Tests used:
Assay type in all cases: toxicity, cell-based
HEK-293T = assay: Incucyte cell viability with HEK293T; conditions: human, 10 µM, compound concentration 10 uM
U2OS = assay: Incucyte cell viability with U2OS; conditions: human, 10 µM, compound concentration 10 uM
Fibroblast = assay: Incucyte cell viability with human fibroblast; conditions: 10 µM, compound concentration 10 uM
[1] = 0 h, replicate number 1, timepoint 0 hours
[2] = 6 h, replicate number 2, timepoint 6 hours
[3] = 12 h, replicate number 2, timepoint 12 hours
[4] = 18 h, replicate number 2, timepoint 18 hours
[5] = 24 h, replicate number 2, timepoint 24 hours
[6] = 0 h, replicate number 2, timepoint 0 hours
[7] = 18 h, replicate number 1, timepoint 18 hours
[8] = 12 h, replicate number 1, timepoint 12 hours
[9] = 6 h, replicate number 1, timepoint 6 hours
[10] = 24 h, replicate number 1, timepoint 24 hours
Note: unitless GR value; below 1 slowed growth and below 0 cell loss.

CCOc1ccc(C[C@H]2NC(=O)CCSSC[C@@H](C(=O)N3CCC[C@H]3C(=O)N[C@@H](CCCN)C(=O)NCC(N)=O)NC(=O)[C@H](CC(N)=O)NC(=O)[C@H]([C@@H](C)O)NC(=O)[C@H]([C@@H](C)CC)NC2=O)cc1 [ATOSIBAN] ([Mpa][dY](Et)ITNCP[Orn]G-NH2; disulfide 1-6)
Growth Rate (HEK-293T; [1]): 0.87 | Growth Rate (HEK-293T; [2]): 0.92 | Growth Rate (HEK-293T; [3]): 0.83 | Growth Rate (HEK-293T; [4]): 0.78 | Growth Rate (HEK-293T; [5]): 0.7 | Growth Rate (U2OS; [6]): -1 | Growth Rate (U2OS; [2]): 0.76 | Growth Rate (U2OS; [3]): 0.97 | Growth Rate (U2OS; [7]): 0.79 | Growth Rate (U2OS; [4]): 0.89 | Growth Rate (Fibroblast; [1]): 0.49 | Growth Rate (Fibroblast; [6]): 0.42 | Growth Rate (Fibroblast; [2]): 0.56 | Growth Rate (Fibroblast; [8]): 0.64 | Growth Rate (Fibroblast; [3]): 0.4

c1ccc(NCc2ccc(CNc3ccccn3)cc2)nc1
Growth Rate (HEK-293T; [6]): 0.94 | Growth Rate (HEK-293T; [9]): 0.66 | Growth Rate (HEK-293T; [2]): 0.7 | Growth Rate (HEK-293T; [8]): 0.44 | Growth Rate (HEK-293T; [3]): 0.83 | Growth Rate (HEK-293T; [7]): 0.98 | Growth Rate (U2OS; [6]): -1 | Growth Rate (U2OS; [7]): 0.76 | Growth Rate (U2OS; [4]): 0.98 | Growth Rate (U2OS; [10]): 0.93 | Growth Rate (Fibroblast; [2]): 1 | Growth Rate (Fibroblast; [8]): 0.23 | Growth Rate (Fibroblast; [3]): 0.64 | Growth Rate (Fibroblast; [7]): 0.88 | Growth Rate (Fibroblast; [10]): 0.76

COc1ccc2c(c1)C(C(=O)N(Cc1ccc(N(C)C)cc1)c1ccc(C(C)C)cc1)CCC2.Cl (centres undefined)
Growth Rate (HEK-293T; [1]): 0.39 | Growth Rate (HEK-293T; [6]): 0.72 | Growth Rate (HEK-293T; [8]): 0.27 | Growth Rate (HEK-293T; [3]): 0.46 | Growth Rate (HEK-293T; [7]): 0.43 | Growth Rate (HEK-293T; [4]): 0.59 | Growth Rate (HEK-293T; [10]): 0.52 | Growth Rate (HEK-293T; [5]): 0.76 | Growth Rate (U2OS; [1]): -0.58 | Growth Rate (U2OS; [6]): -1 | Growth Rate (U2OS; [9]): 0.25 | Growth Rate (U2OS; [8]): 0.93 | Growth Rate (U2OS; [3]): 0.84 | Growth Rate (U2OS; [7]): 0.73 | Growth Rate (U2OS; [4]): 0.81 | Growth Rate (U2OS; [5]): 0.79 | Growth Rate (Fibroblast; [9]): 0.76 | Growth Rate (Fibroblast; [10]): 0.93

Cc1cc(CN)cc(C)c1-c1ncn(C)c1-c1cncn1C
Growth Rate (HEK-293T; [1]): 0.03 | Growth Rate (HEK-293T; [6]): -0.09 | Growth Rate (HEK-293T; [8]): 0.88 | Growth Rate (HEK-293T; [10]): 0.89 | Growth Rate (U2OS; [1]): -0.39 | Growth Rate (U2OS; [6]): 0.16 | Growth Rate (U2OS; [9]): 0.65 | Growth Rate (U2OS; [2]): 0.66 | Growth Rate (U2OS; [8]): 0.71 | Growth Rate (U2OS; [3]): 0.95 | Growth Rate (U2OS; [7]): 0.74 | Growth Rate (U2OS; [10]): 0.73 | Growth Rate (Fibroblast; [1]): 0.66 | Growth Rate (Fibroblast; [6]): -0.16 | Growth Rate (Fibroblast; [9]): 0.41

CCc1nc2c(C)cc(C)nc2[nH]1
Growth Rate (HEK-293T; [4]): 0.89 | Growth Rate (U2OS; [9]): 0.2 | Growth Rate (U2OS; [8]): 0.62 | Growth Rate (U2OS; [7]): 0.7 | Growth Rate (U2OS; [4]): 0.93 | Growth Rate (U2OS; [5]): 0.96 | Growth Rate (Fibroblast; [1]): 0.65 | Growth Rate (Fibroblast; [2]): 0.58 | Growth Rate (Fibroblast; [3]): 0.69 | Growth Rate (Fibroblast; [4]): 0.92

CC(C)NCC(O)COc1cccc2[nH]ccc12 (centres undefined) [PINDOLOL]
Growth Rate (HEK-293T; [6]): -0.05 | Growth Rate (HEK-293T; [9]): 0.7 | Growth Rate (HEK-293T; [7]): 0.97 | Growth Rate (HEK-293T; [4]): 0.94 | Growth Rate (HEK-293T; [10]): 0.82 | Growth Rate (HEK-293T; [5]): 0.98 | Growth Rate (U2OS; [1]): -0.36 | Growth Rate (U2OS; [6]): 0.98 | Growth Rate (U2OS; [9]): 0.52 | Growth Rate (U2OS; [8]): 0.93 | Growth Rate (U2OS; [7]): 0.88 | Growth Rate (U2OS; [10]): 0.7 | Growth Rate (Fibroblast; [1]): 0.32 | Growth Rate (Fibroblast; [6]): -0.46 | Growth Rate (Fibroblast; [8]): 0.78 | Growth Rate (Fibroblast; [7]): 0.94 | Growth Rate (Fibroblast; [10]): 0.9

CN[C@@H](C)C(=O)N[C@H]1CCCC[C@H]2CC[C@@H](C(=O)N[C@@H](c3ccccc3)c3cn(CCCCc4ccc(CCCCn5cc([C@@H](NC(=O)[C@@H]6CC[C@@H]7CCCC[C@H](NC(=O)[C@H](C)NC)C(=O)N76)c6ccccc6)nn5)cc4)nn3)N2C1=O
Growth Rate (HEK-293T; [1]): 0.2 | Growth Rate (HEK-293T; [6]): 0.49 | Growth Rate (HEK-293T; [9]): 0.5 | Growth Rate (HEK-293T; [2]): 0.74 | Growth Rate (HEK-293T; [8]): 0.73 | Growth Rate (HEK-293T; [3]): 0.75 | Growth Rate (HEK-293T; [7]): 0.93 | Growth Rate (HEK-293T; [4]): 0.8 | Growth Rate (HEK-293T; [10]): 0.66 | Growth Rate (HEK-293T; [5]): 0.84 | Growth Rate (U2OS; [1]): -0.18 | Growth Rate (U2OS; [9]): 0.83 | Growth Rate (U2OS; [7]): 0.97 | Growth Rate (U2OS; [10]): 1 | Growth Rate (Fibroblast; [6]): 0.01 | Growth Rate (Fibroblast; [9]): 0.17 | Growth Rate (Fibroblast; [8]): 0.57 | Growth Rate (Fibroblast; [3]): 0.75 | Growth Rate (Fibroblast; [4]): 0.88 | Growth Rate (Fibroblast; [10]): 0.71 | Growth Rate (Fibroblast; [5]): 0.81

N=C(N)NCCC[C@H](NC(=O)COCC(c1ccccc1)c1ccccc1)C(=O)O.O=C(O)C(F)(F)F
Growth Rate (HEK-293T; [1]): 0.96 | Growth Rate (HEK-293T; [6]): 0.2 | Growth Rate (HEK-293T; [9]): 1 | Growth Rate (HEK-293T; [8]): 0.7 | Growth Rate (HEK-293T; [7]): 0.84 | Growth Rate (U2OS; [1]): 0.29 | Growth Rate (U2OS; [6]): 0.34 | Growth Rate (U2OS; [9]): 0.54 | Growth Rate (U2OS; [2]): 0.72 | Growth Rate (U2OS; [8]): 0.84 | Growth Rate (U2OS; [3]): 0.86 | Growth Rate (U2OS; [7]): 0.7 | Growth Rate (U2OS; [4]): 0.91 | Growth Rate (U2OS; [10]): 0.8 | Growth Rate (U2OS; [5]): 1 | Growth Rate (Fibroblast; [6]): 0.91 | Growth Rate (Fibroblast; [9]): 0.91 | Growth Rate (Fibroblast; [8]): 0.66 | Growth Rate (Fibroblast; [7]): 0.46 | Growth Rate (Fibroblast; [10]): 0.79

Cc1onc(-c2ccccc2Cl)c1C(=O)N(C)c1ccc(Cl)cc1
Growth Rate (HEK-293T; [6]): 0.62 | Growth Rate (U2OS; [2]): 0.56 | Growth Rate (U2OS; [3]): 0.67 | Growth Rate (U2OS; [4]): 0.85 | Growth Rate (U2OS; [5]): 0.96 | Growth Rate (Fibroblast; [1]): -0.53 | Growth Rate (Fibroblast; [6]): 0.86

CCCN(CCC)CCc1cccc2c1CC(=O)N2.Cl [ROPINIROLE HYDROCHLORIDE]
Growth Rate (HEK-293T; [1]): 0.6 | Growth Rate (HEK-293T; [6]): 0.1 | Growth Rate (HEK-293T; [9]): 0.94 | Growth Rate (U2OS; [1]): 0.4 | Growth Rate (U2OS; [9]): 0.57 | Growth Rate (U2OS; [8]): 0.77 | Growth Rate (U2OS; [7]): 0.76 | Growth Rate (Fibroblast; [1]): 0.73 | Growth Rate (Fibroblast; [6]): -0.1 | Growth Rate (Fibroblast; [8]): 0.31 | Growth Rate (Fibroblast; [7]): 0.67 | Growth Rate (Fibroblast; [10]): 0.64

Cl.NCCc1ccc(O)c(O)c1 [DOPAMINE HYDROCHLORIDE]
Growth Rate (HEK-293T; [1]): 0.96 | Growth Rate (HEK-293T; [9]): 0.72 | Growth Rate (HEK-293T; [8]): 0.97 | Growth Rate (U2OS; [1]): 0.15 | Growth Rate (U2OS; [9]): 0.57 | Growth Rate (U2OS; [8]): 0.79 | Growth Rate (U2OS; [7]): 0.8 | Growth Rate (U2OS; [10]): 0.95 | Growth Rate (Fibroblast; [1]): 0.12 | Growth Rate (Fibroblast; [6]): 0.55 | Growth Rate (Fibroblast; [2]): 0.26 | Growth Rate (Fibroblast; [3]): 0.67 | Growth Rate (Fibroblast; [4]): 0.95

CO/C1=C/C(C)=C\[C@@H](C)[C@@H](O)[C@@H](C)C/C(C)=C\C=C/[C@H](OC)C([C@@H](C)[C@@H](O)[C@H](C)[C@@]2(O)C[C@@H](O)[C@H](C)[C@@H](C(C)C)O2)OC1=O (some centres undefined)
Growth Rate (HEK-293T; [9]): -0.8 | Growth Rate (HEK-293T; [2]): -0.9 | Growth Rate (HEK-293T; [8]): -0.61 | Growth Rate (HEK-293T; [3]): -0.69 | Growth Rate (HEK-293T; [7]): -0.45 | Growth Rate (HEK-293T; [4]): -0.5 | Growth Rate (HEK-293T; [10]): -0.36 | Growth Rate (HEK-293T; [5]): -0.38 | Growth Rate (U2OS; [9]): 0.5 | Growth Rate (U2OS; [2]): 0.63 | Growth Rate (U2OS; [8]): 0.37 | Growth Rate (U2OS; [3]): 0.39 | Growth Rate (U2OS; [7]): 0.23 | Growth Rate (U2OS; [4]): 0.18 | Growth Rate (U2OS; [10]): 0.14 | Growth Rate (U2OS; [5]): 0.12 | Growth Rate (Fibroblast; [1]): 0.09 | Growth Rate (Fibroblast; [6]): -0.31 | Growth Rate (Fibroblast; [9]): -0.77 | Growth Rate (Fibroblast; [2]): -0.59 | Growth Rate (Fibroblast; [8]): -0.79 | Growth Rate (Fibroblast; [3]): -0.56 | Growth Rate (Fibroblast; [7]): -0.72 | Growth Rate (Fibroblast; [4]): -0.46 | Growth Rate (Fibroblast; [10]): -0.61 | Growth Rate (Fibroblast; [5]): -0.4
